Assay results from PubChem BioAssay (NCI).
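Values below derive from 48-hour exposures of cells grown in 96-well plates, with endpoints linearly interpolated between the two concentrations bracketing the appropriate inhibition level. GI50 = concentration required for 50% inhibition of growth. TGI: total growth inhibition.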 Where a SMILES comes first, the peptide text is derived from it. The star is where a group is joined. Bn = c1ccc(C*)cc1

What was measured:
Experiment in all cases: NCI tumour cell line growth inhibition, 48 h
HCT-116 colon = tested on: HCT-116 colon
MALME-3M melanoma = tested on: MALME-3M melanoma
PC-3 prostate = tested on: PC-3 prostate
SF-268 CNS = tested on: SF-268 CNS
NCI-H460 lung = tested on: NCI-H460 lung
SK-MEL-2 melanoma = tested on: SK-MEL-2 melanoma
NCI-H226 lung = tested on: NCI-H226 lung
UO-31 renal = tested on: UO-31 renal
HL-60(TB) leukemia = tested on: HL-60(TB) leukemia
KM12 colon = tested on: KM12 colon

Structure (SMILES) | TGI (HCT-116 colon) | TGI (MALME-3M melanoma) | TGI (PC-3 prostate) | TGI (SF-268 CNS) | TGI (NCI-H460 lung) | TGI (SK-MEL-2 melanoma) | TGI (NCI-H226 lung) | TGI (UO-31 renal) | TGI (HL-60(TB) leukemia) | TGI (KM12 colon) | GI50 (MALME-3M melanoma) | GI50 (PC-3 prostate) | GI50 (UO-31 renal) | GI50 (HL-60(TB) leukemia) | GI50 (HCT-116 colon) | GI50 (SF-268 CNS) | GI50 (NCI-H460 lung) | GI50 (SK-MEL-2 melanoma) | GI50 (NCI-H226 lung) | GI50 (KM12 colon)
O=C(CNCc1ccccc1)Oc1c(Cl)c(Cl)c(Cl)c(Cl)c1Cl | > 100 µM | 65.3 µM | 48.1 µM | > 100 µM | > 100 µM | 92 µM | 83.1 µM | 52.1 µM | 52.4 µM | 51.1 µM | – | – | – | – | – | – | – | – | – | –
COC(=O)C(CC(C)C)NC(=O)C(N)Cc1ccc(OCc2ccccc2)cc1 (stereo not given) (H-Tyr(Bn)-Leu-OMe; configuration not given here) | > 10 µM | 6.62 µM | > 10 µM | > 10 µM | > 10 µM | > 10 µM | > 10 µM | > 10 µM | 5.61 µM | > 10 µM | – | – | – | – | – | – | – | – | – | –
O=C(O)c1c2c(cc3c1CC1(Cc4ccccc4C1=O)C3)CCC2 (stereo not given) | > 100 µM | 76.6 µM | > 100 µM | > 100 µM | > 100 µM | 55.1 µM | > 85.8 µM | > 100 µM | 14.9 µM | > 100 µM | – | – | – | – | – | – | – | – | – | –
Clc1ccc(Cl)c(SCCCN2CCNCC2)c1 | 41.5 µM | 31.8 µM | 29.7 µM | 33.9 µM | 42.1 µM | – | 43.4 µM | 30.1 µM | 40.3 µM | 86.1 µM | – | – | – | – | – | – | – | – | – | –
COC(=O)c1cc2c(cc1CC(Cc1ccc3c(c1)CCC3)C(=O)OC)CCC2 (stereo not given) | > 100 µM | > 100 µM | > 100 µM | > 100 µM | > 100 µM | > 100 µM | > 100 µM | > 100 µM | 31.1 µM | > 100 µM | – | – | – | – | – | – | – | – | – | –
c1csc(-c2c3ccc(=[N+]4CCCCC4)cc-3oc3cc(N4CCCCC4)ccc23)c1 | – | 0.0822 µM | 0.177 µM | – | – | – | – | 0.277 µM | 0.547 µM | – | 0.027 µM | 0.0373 µM | 0.136 µM | 0.145 µM | – | – | – | – | – | –
COc1ccc(/C=N/N2C(=O)c3c(N)c(C#N)c(-c4ccccc4)c(-c4ccccc4)c3C2=O)cc1 | > 100 µM | > 100 µM | > 100 µM | > 100 µM | > 100 µM | > 100 µM | > 100 µM | > 100 µM | > 100 µM | > 100 µM | – | – | – | – | – | – | – | – | – | –
CCCOC(=O)NC(C)C(=O)NC(CCC(=O)NC(CCCC(N)C(=O)O)C(=O)NC(C)C(=O)O)C(=O)O (stereo not given) | > 100 µM | – | 53.7 µM | 42.3 µM | > 100 µM | > 100 µM | – | > 100 µM | 42.1 µM | 27.4 µM | – | – | – | – | – | – | – | – | – | –
COc1cc2c(cc1OC)C13CC[N+]4(C)CC5=CCOC6CC(=O)N2C1C6C5CC34[O-] (stereo not given) | > 100 µM | > 100 µM | > 100 µM | > 100 µM | > 100 µM | – | > 100 µM | > 100 µM | > 100 µM | > 100 µM | – | – | – | – | – | – | – | – | – | –
Cc1cn2c(C)csc2c1P(=O)(OC(C)C)OC(C)C | > 100 µM | > 100 µM | > 100 µM | > 100 µM | > 100 µM | > 100 µM | – | > 100 µM | > 100 µM | > 100 µM | – | – | – | – | – | – | – | – | – | –
Cc1cn([C@H]2C[C@](C)(CO)N(C)O2)c(=O)[nH]c1=O | > 100 µM | > 100 µM | > 100 µM | > 100 µM | > 100 µM | > 100 µM | > 100 µM | > 100 µM | > 100 µM | > 100 µM | – | – | – | – | – | – | – | – | – | –
S=C1CC(c2ccccc2)Sc2ccc(Cl)cc2N1 (stereo not given) | > 100 µM | > 100 µM | > 100 µM | > 100 µM | > 100 µM | – | > 100 µM | > 100 µM | > 100 µM | > 100 µM | – | – | – | – | – | – | – | – | – | –
Cc1cc2nc(-c3cc(C(C)(C)C)c(O)c(C(C)(C)C)c3)[nH]c2cc1C | – | > 100 µM | > 100 µM | > 100 µM | > 100 µM | > 100 µM | > 100 µM | > 27.4 µM | > 100 µM | > 28.8 µM | – | – | – | – | – | – | – | – | – | –
CC(C)(C)OC(=O)C1C(=O)NC(=O)CC1C(COCc1ccccc1)OCc1ccccc1 (stereo not given) | 32.7 µM | 35.5 µM | 27.2 µM | 59.3 µM | – | – | 39.4 µM | 55.8 µM | 60.6 µM | 36.7 µM | – | – | – | – | – | – | – | – | – | –
C[C@]1(S(=O)(=O)c2ccccc2)C[C@H]2N(Cc3ccccc3)[C@@H]1CCC21OCCO1 | > 100 µM | > 100 µM | > 100 µM | > 100 µM | > 100 µM | > 100 µM | – | > 100 µM | 32.6 µM | > 100 µM | – | – | – | – | – | – | – | – | – | –
C=C(C)[C@@]1(O[Si](C)(C)C)CCCC[C@@H]1CC(Sc1ccccc1)Sc1ccccc1 | – | 24.4 µM | 27.4 µM | 28.2 µM | 29.6 µM | 31 µM | 32.2 µM | 27.3 µM | 40.8 µM | 23.8 µM | – | – | – | – | – | – | – | – | – | –
O=C(O)CSC(NC(=O)C(C(F)(F)F)C(F)(F)F)(C(F)(F)F)C(F)(F)F | > 100 µM | – | > 100 µM | > 100 µM | – | > 100 µM | – | > 100 µM | > 100 µM | – | – | – | – | – | – | – | – | – | – | –
O=C(O)CC(NC(=O)/C(=C/c1ccccc1O)NC(=O)c1ccccc1)C(=O)O (stereo not given) | > 100 µM | > 100 µM | > 100 µM | – | – | > 100 µM | > 100 µM | > 100 µM | 76.5 µM | > 100 µM | – | – | – | – | – | – | – | – | – | –
O=C(CCCN1CCC2(CC1)C(=NC1CCCCC1)NC(=O)N2c1ccccc1)c1ccc(F)cc1 | 46.1 µM | 29.9 µM | 43.3 µM | 40.1 µM | 54.5 µM | 31.9 µM | 32.3 µM | – | 57.4 µM | 42.5 µM | – | – | – | – | – | – | – | – | – | –
OC1(c2ccc(Cl)cc2)c2ccc(CN3CCCC3)cc2C2=NCCN21 (stereo not given) | 27.1 µM | 25.2 µM | 27.2 µM | 29.7 µM | 29.1 µM | 34.2 µM | – | 27.5 µM | 29.1 µM | 27.6 µM | – | – | – | – | – | – | – | – | – | –
COc1ccc(-c2csc(NC(=O)CSc3nc(C)c(-c4ccccc4)n3Nc3ccccc3)n2)cc1 | > 100 µM | – | > 100 µM | > 100 µM | > 100 µM | > 100 µM | > 100 µM | > 100 µM | > 100 µM | > 100 µM | – | 5.16 µM | 1.89 µM | 6.29 µM | 5.32 µM | 9.05 µM | 7.41 µM | 9.52 µM | > 100 µM | 5.71 µM
COc1cc([C@@H]2c3cc4c(cc3[C@@H](c3c(O)cc(O)c5c3O[C@H](c3ccc(O)c(O)c3)[C@@H](O)C5)[C@H]3COC(=O)[C@H]23)OCO4)cc(OC)c1O | > 100 µM | > 100 µM | > 100 µM | > 100 µM | > 100 µM | > 100 µM | – | – | > 100 µM | > 100 µM | – | – | – | – | – | – | – | – | – | –
